Results published in the kinase profiling compilation of Christmann-Franck et al. (2016).
Values joined by “and” are separate entries in the source; they are usually repeats but may differ in a detail not shown here. Equal values may be shown once.

Key:
Assay in all cases: radiometric filter-binding kinase assay, Kinaseprofiler
[1] = target: KIT (human) (UniProt P10721); conditions: ATP 200 µM
[2] = target: CSNK1G1 (human) (UniProt Q9HCP0); conditions: ATP 15 µM
[3] = target: PTK2 (human) (UniProt Q05397); conditions: ATP 70 µM
[4] = target: NEK11 (human) (UniProt Q8NG66); conditions: ATP 200 µM
[5] = target: PDPK1 (human) (UniProt O15530); conditions: ATP 10 µM
[6] = target: FGFR2 (human) (UniProt P21802); conditions: ATP 90 µM
Sequence of FGFR2 (human) (P21802 whole entry, looked up): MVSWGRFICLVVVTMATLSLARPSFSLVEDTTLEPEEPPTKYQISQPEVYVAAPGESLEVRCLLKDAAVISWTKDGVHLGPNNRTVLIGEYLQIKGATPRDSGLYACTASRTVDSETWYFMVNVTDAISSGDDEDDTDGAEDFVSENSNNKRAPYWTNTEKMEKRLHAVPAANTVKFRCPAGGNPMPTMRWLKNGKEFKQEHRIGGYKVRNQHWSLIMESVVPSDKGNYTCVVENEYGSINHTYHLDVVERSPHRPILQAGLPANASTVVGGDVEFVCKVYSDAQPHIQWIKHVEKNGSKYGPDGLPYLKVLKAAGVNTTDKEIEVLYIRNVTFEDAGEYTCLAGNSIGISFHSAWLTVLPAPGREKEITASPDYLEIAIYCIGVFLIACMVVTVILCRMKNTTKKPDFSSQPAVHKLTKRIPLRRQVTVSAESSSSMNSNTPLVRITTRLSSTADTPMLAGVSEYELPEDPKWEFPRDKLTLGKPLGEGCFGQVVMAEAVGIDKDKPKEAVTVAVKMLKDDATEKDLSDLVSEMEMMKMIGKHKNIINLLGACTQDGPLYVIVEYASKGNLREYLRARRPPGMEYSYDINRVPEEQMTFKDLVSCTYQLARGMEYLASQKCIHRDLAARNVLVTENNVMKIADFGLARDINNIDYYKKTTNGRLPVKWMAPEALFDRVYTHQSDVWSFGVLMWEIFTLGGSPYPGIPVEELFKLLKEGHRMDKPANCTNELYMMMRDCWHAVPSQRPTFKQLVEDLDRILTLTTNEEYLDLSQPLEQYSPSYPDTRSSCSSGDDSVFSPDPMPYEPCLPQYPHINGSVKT

[7] = target: PAK7 (human) (UniProt Q9P286); conditions: ATP 15 µM
[8] = target: ULK3 (human) (UniProt Q6PHR2); conditions: ATP 10 µM
[9] = target: PDGFRB (human) (UniProt P09619); conditions: ATP 200 µM
[10] = target: TAOK2 (human) (UniProt Q9UL54); conditions: ATP 15 µM
[11] = target: INSR (human) (UniProt P06213)
Sequence of INSR (human) (P06213 whole entry, looked up): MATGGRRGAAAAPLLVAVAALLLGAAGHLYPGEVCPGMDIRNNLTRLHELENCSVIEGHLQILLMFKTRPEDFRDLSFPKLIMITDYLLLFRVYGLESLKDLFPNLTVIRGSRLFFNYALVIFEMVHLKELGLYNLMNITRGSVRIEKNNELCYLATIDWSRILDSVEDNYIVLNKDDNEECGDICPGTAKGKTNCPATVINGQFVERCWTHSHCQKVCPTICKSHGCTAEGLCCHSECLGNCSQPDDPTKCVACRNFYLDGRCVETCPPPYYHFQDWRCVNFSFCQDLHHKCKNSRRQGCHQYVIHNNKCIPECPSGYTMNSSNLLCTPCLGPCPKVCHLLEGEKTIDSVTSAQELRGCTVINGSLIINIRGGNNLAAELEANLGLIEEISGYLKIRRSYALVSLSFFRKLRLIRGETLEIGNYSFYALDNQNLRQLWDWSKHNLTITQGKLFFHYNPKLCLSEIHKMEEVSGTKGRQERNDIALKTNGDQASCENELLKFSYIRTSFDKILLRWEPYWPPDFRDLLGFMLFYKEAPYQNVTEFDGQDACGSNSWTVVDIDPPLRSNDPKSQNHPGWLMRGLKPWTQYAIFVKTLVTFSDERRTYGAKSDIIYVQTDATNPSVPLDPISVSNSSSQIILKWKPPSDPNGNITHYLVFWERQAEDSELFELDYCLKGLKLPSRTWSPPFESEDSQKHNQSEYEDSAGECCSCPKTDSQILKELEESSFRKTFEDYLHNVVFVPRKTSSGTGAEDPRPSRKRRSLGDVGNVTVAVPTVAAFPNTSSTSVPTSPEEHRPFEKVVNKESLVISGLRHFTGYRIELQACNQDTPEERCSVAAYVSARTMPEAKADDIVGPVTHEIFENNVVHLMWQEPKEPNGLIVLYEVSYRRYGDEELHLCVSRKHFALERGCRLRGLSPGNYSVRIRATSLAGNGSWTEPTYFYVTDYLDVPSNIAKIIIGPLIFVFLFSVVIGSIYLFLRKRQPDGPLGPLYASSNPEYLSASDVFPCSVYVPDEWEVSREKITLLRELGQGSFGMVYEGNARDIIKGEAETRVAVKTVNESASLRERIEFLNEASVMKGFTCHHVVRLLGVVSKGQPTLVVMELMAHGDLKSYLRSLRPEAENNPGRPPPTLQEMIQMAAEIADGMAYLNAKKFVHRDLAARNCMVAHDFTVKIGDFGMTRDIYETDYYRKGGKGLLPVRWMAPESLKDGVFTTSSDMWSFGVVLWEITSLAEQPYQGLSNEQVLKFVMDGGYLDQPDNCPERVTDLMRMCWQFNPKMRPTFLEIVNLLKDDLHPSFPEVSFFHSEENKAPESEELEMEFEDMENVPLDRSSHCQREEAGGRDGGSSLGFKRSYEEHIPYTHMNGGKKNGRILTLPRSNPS

[12] = target: MST1R (human) (UniProt Q04912); conditions: ATP 70 µM
[13] = target: PAK4 (human) (UniProt O96013); conditions: ATP 10 µM
[14] = target: ZAP70 (human) (UniProt P43403); conditions: ATP 15 µM
[15] = target: RPS6KA5 KD1 KD2 (human) (UniProt O75582); conditions: ATP 90 µM
Sequence of RPS6KA5 KD1 KD2 (human) (O75582 whole entry, looked up): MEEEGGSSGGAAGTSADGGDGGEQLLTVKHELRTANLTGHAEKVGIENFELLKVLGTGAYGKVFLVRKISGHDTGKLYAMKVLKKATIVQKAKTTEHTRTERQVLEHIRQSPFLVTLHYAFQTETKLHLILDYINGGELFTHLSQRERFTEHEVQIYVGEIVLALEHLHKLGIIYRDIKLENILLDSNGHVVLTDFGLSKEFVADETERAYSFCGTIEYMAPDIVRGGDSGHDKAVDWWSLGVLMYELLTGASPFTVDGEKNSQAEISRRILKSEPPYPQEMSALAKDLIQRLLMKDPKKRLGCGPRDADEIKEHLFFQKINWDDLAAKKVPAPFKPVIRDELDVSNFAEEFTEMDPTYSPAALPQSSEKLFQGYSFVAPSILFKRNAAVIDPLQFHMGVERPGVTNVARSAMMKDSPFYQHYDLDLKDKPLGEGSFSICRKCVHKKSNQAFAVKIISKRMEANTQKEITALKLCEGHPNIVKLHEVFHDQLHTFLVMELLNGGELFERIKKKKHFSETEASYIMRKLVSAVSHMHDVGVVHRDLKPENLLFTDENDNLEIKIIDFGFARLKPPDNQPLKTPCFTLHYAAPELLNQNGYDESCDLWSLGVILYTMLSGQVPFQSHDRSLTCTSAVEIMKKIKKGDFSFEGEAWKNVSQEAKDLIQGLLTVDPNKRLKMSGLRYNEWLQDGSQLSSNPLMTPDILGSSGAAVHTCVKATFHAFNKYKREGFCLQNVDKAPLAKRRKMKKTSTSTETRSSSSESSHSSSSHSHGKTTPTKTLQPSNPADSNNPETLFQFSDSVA

[16] = target: GRK6 (human) (UniProt P43250); conditions: ATP 45 µM
[17] = target: ACVR1B (human) (UniProt P36896); conditions: ATP 10 µM
[18] = target: STK10 (human) (UniProt O94804); conditions: ATP 200 µM
[19] = target: GSG2 (human) (UniProt Q8TF76); conditions: ATP 70 µM
[20] = target: ROCK2 (human) (UniProt O75116); conditions: ATP 15 µM
[21] = target: MTOR (human) (UniProt P42345); conditions: ATP 70 µM
[22] = target: MAPK14 (human) (UniProt Q16539); conditions: ATP 90 µM
[23] = system: AXL (human), P30530 [Q764R]; conditions: ATP 90 µM
[24] = target: LCK (human) (UniProt P06239); conditions: ATP 90 µM
Sequence of LCK (human) (P06239 whole entry, looked up): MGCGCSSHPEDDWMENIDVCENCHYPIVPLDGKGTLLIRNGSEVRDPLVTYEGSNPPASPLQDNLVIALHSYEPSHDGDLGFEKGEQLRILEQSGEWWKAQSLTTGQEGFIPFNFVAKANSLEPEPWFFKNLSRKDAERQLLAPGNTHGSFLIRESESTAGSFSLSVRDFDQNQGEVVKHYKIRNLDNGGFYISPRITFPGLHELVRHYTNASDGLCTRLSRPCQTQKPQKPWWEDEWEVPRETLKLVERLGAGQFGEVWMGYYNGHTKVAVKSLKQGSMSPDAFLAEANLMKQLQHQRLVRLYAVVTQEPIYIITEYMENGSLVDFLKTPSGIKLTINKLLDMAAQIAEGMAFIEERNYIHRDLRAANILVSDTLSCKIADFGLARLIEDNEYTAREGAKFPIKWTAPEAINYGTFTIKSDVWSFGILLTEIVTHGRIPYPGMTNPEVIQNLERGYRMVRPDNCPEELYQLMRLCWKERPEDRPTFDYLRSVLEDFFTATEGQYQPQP

[25] = target: NTRK2 (human) (UniProt Q16620); conditions: ATP 90 µM
[26] = target: DCLK2 (human) (UniProt Q8N568); conditions: ATP 90 µM
[27] = system: CSNK1D (rat); conditions: accession and sequence are those of the human protein
[28] = target: CDK5 CDK5R1 p25 (human) (UniProt Q00535+Q15078); conditions: ATP 15 µM
Sequence of CDK5 CDK5R1 p25 (human) (Q00535 whole entry, looked up): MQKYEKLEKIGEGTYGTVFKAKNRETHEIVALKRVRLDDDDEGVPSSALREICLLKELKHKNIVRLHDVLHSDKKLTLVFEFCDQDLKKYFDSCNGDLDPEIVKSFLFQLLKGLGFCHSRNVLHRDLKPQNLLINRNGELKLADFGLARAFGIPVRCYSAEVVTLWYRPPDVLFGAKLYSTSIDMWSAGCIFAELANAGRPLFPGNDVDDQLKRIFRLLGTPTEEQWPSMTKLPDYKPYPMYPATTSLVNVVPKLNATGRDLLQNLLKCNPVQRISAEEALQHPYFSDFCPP
Sequence of CDK5 CDK5R1 p25 (human) (Q15078 whole entry, looked up): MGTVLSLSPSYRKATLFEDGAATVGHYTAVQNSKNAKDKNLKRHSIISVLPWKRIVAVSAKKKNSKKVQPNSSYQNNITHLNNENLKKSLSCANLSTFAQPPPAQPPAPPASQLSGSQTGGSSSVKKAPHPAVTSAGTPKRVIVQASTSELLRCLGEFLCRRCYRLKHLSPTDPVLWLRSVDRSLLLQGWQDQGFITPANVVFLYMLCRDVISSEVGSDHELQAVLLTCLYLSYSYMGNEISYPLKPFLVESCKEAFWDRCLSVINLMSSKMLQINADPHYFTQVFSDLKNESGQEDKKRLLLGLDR

[29] = target: DAPK3 (human) (UniProt O43293); conditions: ATP 15 µM
Sequence of DAPK3 (human) (O43293 whole entry, looked up): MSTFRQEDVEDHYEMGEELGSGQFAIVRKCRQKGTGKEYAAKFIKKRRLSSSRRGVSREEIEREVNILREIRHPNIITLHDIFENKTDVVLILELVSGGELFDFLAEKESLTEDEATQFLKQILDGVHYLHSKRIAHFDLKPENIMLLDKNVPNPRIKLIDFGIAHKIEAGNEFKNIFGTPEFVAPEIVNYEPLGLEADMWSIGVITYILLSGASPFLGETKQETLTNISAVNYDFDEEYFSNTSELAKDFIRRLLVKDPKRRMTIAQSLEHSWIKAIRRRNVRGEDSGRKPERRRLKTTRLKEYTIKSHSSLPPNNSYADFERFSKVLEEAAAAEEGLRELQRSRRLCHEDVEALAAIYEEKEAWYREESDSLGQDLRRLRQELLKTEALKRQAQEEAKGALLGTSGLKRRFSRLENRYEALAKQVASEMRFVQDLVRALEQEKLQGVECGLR

[30] = target: MAPK8 (human) (UniProt P45983); conditions: ATP 45 µM
[31] = target: TSSK2 (human) (UniProt Q96PF2); conditions: ATP 15 µM
Sequence of TSSK2 (human) (Q96PF2 whole entry, looked up): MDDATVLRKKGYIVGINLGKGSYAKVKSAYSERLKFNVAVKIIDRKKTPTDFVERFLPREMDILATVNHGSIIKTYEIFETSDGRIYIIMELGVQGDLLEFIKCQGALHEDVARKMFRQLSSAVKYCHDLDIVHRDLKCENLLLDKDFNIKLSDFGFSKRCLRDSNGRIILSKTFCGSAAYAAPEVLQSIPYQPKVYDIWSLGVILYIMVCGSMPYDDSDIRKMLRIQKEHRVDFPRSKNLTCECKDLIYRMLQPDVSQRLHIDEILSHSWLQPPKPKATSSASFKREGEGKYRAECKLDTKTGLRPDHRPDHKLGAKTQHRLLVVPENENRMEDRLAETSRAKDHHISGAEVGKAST

[32] = target: CSNK2A2 (human) (UniProt P19784); conditions: ATP 10 µM

## O=C1Nc2ccccc2/C1=C1\Nc2ccccc2\C1=N/O
[1]; compound 1.0 µM
  residual activity: 20%
[1]; compound 10.0 µM
  residual activity: 2%
[2]; compound 1.0 µM
  residual activity: 57%
[2]; compound 10.0 µM
  residual activity: 19%
[3]; compound 1.0 µM
  residual activity: 39%
[3]; compound 10.0 µM
  residual activity: 2%
[4]; compound 1.0 µM
  residual activity: 70%
[4]; compound 10.0 µM
  residual activity: 18%
[5]; compound 1.0 µM
  residual activity: 53%
[5]; compound 10.0 µM
  residual activity: 9%
[6]; compound 1.0 µM
  residual activity: 22%
[6]; compound 10.0 µM
  residual activity: 2%
[7]; compound 1.0 µM
  residual activity: 64%
[7]; compound 10.0 µM
  residual activity: 33%
[8]; compound 1.0 µM
  residual activity: 55%
[8]; compound 10.0 µM
  residual activity: 12%
[9]; compound 1.0 µM
  residual activity: 84%
[9]; compound 10.0 µM
  residual activity: 26%
[10]; compound 1.0 µM
  residual activity: 75%
[10]; compound 10.0 µM
  residual activity: 26%
[11]; compound 1.0 µM, ATP 45 µM
  residual activity: 35%
[11]; compound 1.0 µM, ATP 200 µM
  residual activity: 17%
[11]; compound 10.0 µM, ATP 45 µM
  residual activity: 19%
[11]; compound 10.0 µM, ATP 200 µM
  residual activity: 10%
[12]; compound 1.0 µM
  residual activity: 86%
[12]; compound 10.0 µM
  residual activity: 71%
[13]; compound 1.0 µM
  residual activity: 55%
[13]; compound 10.0 µM
  residual activity: 14%
[14]; compound 1.0 µM
  residual activity: 79%
[14]; compound 10.0 µM
  residual activity: 91%
[15]; compound 1.0 µM
  residual activity: 61%
[15]; compound 10.0 µM
  residual activity: 21%
[16]; compound 1.0 µM
  residual activity: 81%
[16]; compound 10.0 µM
  residual activity: 80%
[17]; compound 1.0 µM
  residual activity: 104%
[17]; compound 10.0 µM
  residual activity: 72%
[18]; compound 1.0 µM
  residual activity: 66%
[18]; compound 10.0 µM
  residual activity: 71%
[19]; compound 1.0 µM
  residual activity: 26%
[19]; compound 10.0 µM
  residual activity: 19%
[20]; compound 1.0 µM
  residual activity: 85%
[20]; compound 10.0 µM
  residual activity: 82%
[21]; compound 1.0 µM
  residual activity: 100%
[21]; compound 10.0 µM
  residual activity: 98%
[22]; compound 1.0 µM
  residual activity: 94%
[22]; compound 10.0 µM
  residual activity: 78%
[23]; compound 1.0 µM
  residual activity: 17%
[23]; compound 10.0 µM
  residual activity: 8%
[24]; compound 1.0 µM
  residual activity: 13% and 22%
[24]; compound 10.0 µM
  residual activity: 6% and 17%
[25]; compound 1.0 µM
  residual activity: 0%
[25]; compound 10.0 µM
  residual activity: 0%
[26]; compound 1.0 µM
  residual activity: 119%
[26]; compound 10.0 µM
  residual activity: 74%
[27]; compound 1.0 µM
  residual activity: 14%
[27]; compound 10.0 µM
  residual activity: 4%
[28]; compound 1.0 µM
  residual activity: 3%
[28]; compound 10.0 µM
  residual activity: 2%
[29]; compound 1.0 µM
  residual activity: 81%
[29]; compound 10.0 µM
  residual activity: 37%
[30]; compound 1.0 µM
  residual activity: 63%
[30]; compound 10.0 µM
  residual activity: 70%
[31]; compound 1.0 µM
  residual activity: 95%
[31]; compound 10.0 µM
  residual activity: 78%
[32]; compound 1.0 µM
  residual activity: 102%
[32]; compound 10.0 µM
  residual activity: 58%
